Assay results taken from patent publication US11771685B2, “Compounds for the treatment of neurological or mitochondrial diseases” (MUSC FOUNDATION FOR RESEARCH DEVELOPMENT, priority 2018, dated 2023).
In brackets after ≈: the same amount, converted by molar mass.

Legend:
[1] = Aqueous solubility at pH 7.4; format: physicochemical; conditions: pH 7.4, aqueous buffer; 50 mM phosphate buffer
[2] = tested on: 6 Hz electrically-induced seizures in mice; assay: 6 Hz mouse seizure model; format: in vivo; conditions: for Number of Animals Protected / Effective Dose / Time of Peak Effect: 5% DMSO: 95% Neobee; for protection against seizures, preliminary testing: toxicity by Rotarod assay and behavioral observations; for 6 Hz 32 mA N/T, mice protected / 6 Hz 44 mA N/T, mice protected: 1 hr
Protocol: In particular, using (i) electrical model to test for seizures in mice and, separately, (ii) in rat 6 Hz 40V model. More specifically, NT-102 was injected (i.p.) in 5% DMSO/95% Miglyol 840 as vehicle. […] […] The mice were administered the NT-102 at various doses and placed on the rotarod (i.e., “Rotarod (Tox)”) to test if the mice would fall off as a model of due to the effects of NT-102; for the “Rotarod(Tox)” results, the “NIT” indicates the number of mice that fell off the rotarod (e.g., for Rotarod(Tox) results, if N/T is 0/8, then zero out of eight mice fell off). […] […] The 44 mA electrical dosage was used since it is considered to be a model to test for medication-resistant epilepsy.

Brain tissue binding = format: in vitro ADME; conditions: in vitro, read-out: Brain tissue binding (% bound)
Zebrafish larvae = assay: In vivo toxicology in zebrafish larvae
Protocol: Zebrafish larvae, 7 days post-fertilization (dpf), were exposed to compounds at 20, 15, 10, and 5 μM, six larvae per compound. Animals were observed 1, 5, and 24 hr after dosing for overt toxicity (altered survival, morbidity, morphological deformity). Heart rate, behavior, and startle response were monitored at each time point.
Zebrafish (AB strain) were obtained from the Zebrafish International Resource Center (supported by P40 RR012546 from NIH—NCRR). Zebrafish were maintained and crossed according to standard methods (Westerfield, 2000). Fertilized eggs were collected and placed in E3 embryo medium and positioned in an incubator set at 28.5° C. with a 14/10-hr light/dark cycle (Kimmel et al., 1995). To determine the lethal dose of each compound, 96-well plates containing one zebrafish (7 days post-fertilization, dpf) per well in 100 μL of tank water were used. 100 μL of each compound (0.5-15 μM) was added to each well for 12 animals (one row) for a final volume of 200 μL. One row of larvae was used as dimethyl sulfoxide (DMSO)-only controls. […] All zebrafish studies were approved by the Medical University of South Carolina Institutional Animal Care and Use Committee (#180278) and performed in accordance with the guidelines.
Using a 96-well plate, 7 dpf zebrafish were placed one per well with 100 μL of tank water. 100 μL of each compound was then added to each well for 12 animals (one row) for a final volume of 200 μL. One row of zebrafish larvae was used as DMSO only controls.

corneal kindled mouse = assay: Mouse corneal kindled model; format: in vivo; conditions: 5% DMSO: 95% Neobee
Protocol: (§1) Synthesis for both compounds has been successfully scaled up. The pharmacokinetic (PK) parameters of these two Vitamin K analogs were determined via intravenous, intraperitoneal and oral administration in mice, and preliminary in vitro ADMET parameters were assessed (Table 3). These compounds are Ames-negative, have hepatic stability greater than 1 hour, can be formulated in oral solution and IV injection solution, can be synthesized in greater than 1 mg quantities, and have established brain PK. However, brain tissue binding was high for both compounds (97-98%). Both 3 (NT-181) and 17 (NT-102) have been tested for efficacy in the 6 Hz mouse seizure model at 22 mA and 32 mA, the corneal kindled mouse model, and the rat in vitro spontaneous electrographic bursting model of pharmacoresistance (Table 4). […] Preliminary studies with this new formulation reveal excellent solubility with full protection in the 6 Hz mouse seizure model at 22 mA, and quantification of both compounds (using this new formulation) in this model at 22 mA, 32 mA and 44 mA, is being performed as well as retesting in the corneal kindled model. […] Rat PK assessments will be performed, and seizure protection assessed in rat models in the ADD workflow such as the 6 Hz model and lamotrigine-resistant amygdala kindled mode.

[3] = Rotarod neurotoxicity test in mice; format: in vivo, mouse; conditions: for Neurotoxicity (Rotorod assay), animals showing toxicity: 5% DMSO: 95% Neobee; for Rotarod (Tox) N/T, mice that fell off: 1 hr, 32 mA study
[4] = Liver microsome stability; format: in vitro ADME; conditions: in vitro; for half-life: liver microsomes, read-out: Liver microsome stability (t1/2)
[5] = In vivo pharmacokinetics in CD-1 mice; conditions: male, CD-1, mouse, plasma, ip, 20 mg/kg, intraperitoneal 20 mg/kg, 5% DMSO: 95% neobee
[6] = Mini-Ames test (mutagenicity); format: cell-based; conditions: in vitro
rat brain slices = assay: Rat in vitro spontaneous electrographic bursting model
Protocol: as §1

Structure (SMILES): CCC#CCNC1=CC(=O)c2ccccc2C1=O [Compound 3, 2-(Pent-2-yn-1-ylamino)naphthalene-1,4-dione]
- solubility [1]: 4.79 µg/mL (≈ 20 µM)
- Number of Animals Protected ([2]; 22 mA, 100 mg/kg): 8/8 at 100 mg/kg
- Effective Dose ([2]; 22 mA): 80.60 (25-100) mg/kg
- Time of Peak Effect ([2]; 22 mA): 0.5 h
- Number of Animals Protected ([2]; 32 mA, 100 mg/kg): 0/7
- Number of Animals Protected ([2]; 32 mA, 300 mg/kg): 3/8
- Number of Animals Protected ([2]; 44 mA, 100 mg/kg): 0/8 at 100 mg/kg
- protection against seizures, preliminary testing [2]: displayed protection against seizures with few or no toxic events
- fraction unbound (Brain tissue binding): 0.02 to 0.03
- concentration lethal/toxic at 24 hr (Zebrafish larvae; 7 dpf larvae, 24 hr): above 5 μM
- Number of Animals Protected (corneal kindled mouse; 300 mg/kg): 0/8 at 300 mg/kg
- Neurotoxicity (Rotorod assay), animals showing toxicity [3]: 1/71 showed toxicity
- Liver microsome stability (t1/2) ([4]; listed as NT-181): >1 h
- half-life [4]: > 1 h
- AUC(0-inf) [5]: 478 ng·h/mL
- Cmax [5]: 147 ng/mL
- MRT inf [5]: 4.2 h
- Tmax [5]: 1 h
- Mini-Ames test (mutagenicity) [6]: Ames-negative
- Mini-Ames test (mutagenicity) ([6]; listed as NT-181): Negative
- Number protected (rat brain slices; 5 uM): 0/8 at 5 uM

Structure (SMILES): CC(C)CCNC1=CC(=O)c2ccccc2C1=O [Compound 17, 2-(Isopentylamino)naphthalene-1,4-dione]
- solubility [1]: 9.64 µg/mL (≈ 39.6 µM)
- 6 Hz 32 mA N/T, mice protected ([2]; 50 mg/kg): 0/8
- 6 Hz 44 mA N/T, mice protected ([2]; 100 mg/kg i.p.): 0/8
- 6 Hz 32 mA N/T, mice protected ([2]; 100 mg/kg): 4/8
- 6 Hz 44 mA N/T, mice protected ([2]; 200 mg/kg i.p.): 2/8
- 6 Hz 32 mA N/T, mice protected ([2]; 200 mg/kg): 3/8
- 6 Hz 44 mA N/T, mice protected ([2]; 300 mg/kg i.p.): 4/8
- 6 Hz 32 mA N/T, mice protected ([2]; 300 mg/kg): 7/8
- 6 Hz 44 mA N/T, mice protected ([2]; 400 mg/kg i.p.): 8/8
- Time of Peak Effect (TPE) ([2]; 6 Hz 44 mA, i.p., 5% DMSO/95% Miglyol 840): 1 h
- Number of Animals Protected ([2]; 22 mA, 400 mg/kg): 8/8 at 400 mg/kg
- Effective Dose ([2]; 22 mA): 209.05 (25-400) mg/kg
- Time of Peak Effect ([2]; 22 mA): 0.25 h
- Number of Animals Protected ([2]; 32 mA, 400 mg/kg): 2/8 at 400 mg/kg
- ED50 ([2]; Mus musculus, 6 Hz 32 mA): 153 mg/kg
- protection against seizures, preliminary testing [2]: displayed protection against seizures with few or no toxic events
- fraction unbound (Brain tissue binding): 0.02 to 0.03
- Number of Animals Protected (corneal kindled mouse; 100, 300 and 400 mg/kg): 0/24 at 100, 300 and 400 mg/kg
- Rotarod (Tox) N/T, mice that fell off ([3]; 50 mg/kg): 0/8
- Rotarod (Tox) N/T, mice that fell off ([3]; 100 mg/kg): 0/8
- Rotarod (Tox) N/T, mice that fell off ([3]; 200 mg/kg): 1/8
- Rotarod (Tox) N/T, mice that fell off ([3]; 300 mg/kg): 3/8
- Neurotoxicity (Rotorod assay), animals showing toxicity [3]: 0/72 showed toxicity
- Liver microsome stability (t1/2) ([4]; listed as NT-102): >1 h
- half-life [4]: > 1 h
- AUC(0-inf) [5]: 1730 ng·h/mL
- Cmax [5]: 320 ng/mL
- MRT inf [5]: 4.39 h
- Tmax [5]: 1 h
- Mini-Ames test (mutagenicity) [6]: Ames-negative
- Mini-Ames test (mutagenicity) ([6]; listed as NT-102): Negative
- Number protected (rat brain slices; 10 uM): 0/9 at 10 uM

Structure (SMILES): CC(C)CCOC1=CC(=O)c2ccccc2C1=O [Compound 25, 2-(Isopentyloxy)naphthalene-1,4-dione]
- survival (Zebrafish larvae; 24 hr, highest concentrations): ⅔
- concentration with no overt toxicity (Zebrafish larvae; AB, zebrafish, in vivo): ≤ 10 µM
